Several values for one entry are separate records, joined by “and”; a condition that tells them apart may be missing. Identical values can stand only once. Toxic doses and inconclusive results are not listed. The calls were made as follows: active = survival T/C of 150% or more; inactive = T/C below 125% in these data.
Tested on: P388 leukemia ip, CD2F1 mice, survival T/C
Assay: NCI In Vivo Anticancer Drug Screen. Data for tumor model P388 Leukemia (intraperitoneal) in CD2F1 (CDF1) mice
Conditions: endpoint: median survival time, higher = longer survival
Outline: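 Mice carrying the transplanted tumor received test compound or vehicle. Survival was recorded in each group, and the value is the treated-group measurement divided by that of the vehicle-treated control group.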

[1] = dose: 100.0 mg/kg/injection, schedule: Q04DX003 (ip), vehicle: saline with Tween-80
[2] = dose: 200.0 mg/kg/injection, schedule: Q04DX003 (ip), vehicle: saline with Tween-80
[3] = dose: 400.0 mg/kg/injection, schedule: Q04DX003 (ip), vehicle: saline with Tween-80
[4] = dose: 50.0 mg/kg/injection, schedule: Q01DX009 (ip), vehicle: Klucel (hydroxypropylcellulose) (HPC)
[5] = dose: 50.0 mg/kg/injection, schedule: Q01DX005 (ip), vehicle: saline with Tween-80
[6] = dose: 100.0 mg/kg/injection, schedule: Q01DX005 (ip), vehicle: saline with Tween-80
[7] = dose: 200.0 mg/kg/injection, schedule: Q01DX005 (ip), vehicle: saline with Tween-80
[8] = dose: 50.0 mg/kg/injection, schedule: Q01DX009 (ip), vehicle: saline with Tween-80
[9] = dose: 100.0 mg/kg/injection, schedule: Q01DX009 (ip), vehicle: saline with Tween-80
[10] = dose: 200.0 mg/kg/injection, schedule: Q01DX009 (ip), vehicle: saline with Tween-80
[11] = dose: 50.0 mg/kg/injection, schedule: Q01DX005 (ip), vehicle: Klucel (hydroxypropylcellulose) (HPC)

Measured: T/C

O=C(O)CCN1C(=O)c2ccccc2C1=O
inactive: [1] 100 % of control | [2] 100 % of control | [3] 95 % of control

CCCCCCCCCCCC[S][Sn]([CH2]CCC)([S]CCCCCCCCCCCC)[S]CCCCCCCCCCCC
inactive: dose: 50.0 mg/kg/injection, schedule: Q01DX009 (ip), vehicle: saline 87 % of control | dose: 100.0 mg/kg/injection, schedule: Q01DX009 (ip), vehicle: saline 99 % of control | dose: 200.0 mg/kg/injection, schedule: Q01DX009 (ip), vehicle: saline 95 % of control

C=C1C(=O)C23C(OC(=O)/C=C/C)C1CCC2C12COC3(O)C(O)C1C(C)(C)CCC2O (centres undefined)
inactive: dose: 3.75 mg/kg/injection, schedule: Q01DX009 (ip), vehicle: saline with Tween-80 103 % of control | dose: 7.5 mg/kg/injection, schedule: Q01DX009 (ip), vehicle: saline with Tween-80 108 % of control | dose: 15.0 mg/kg/injection, schedule: Q01DX009 (ip), vehicle: saline with Tween-80 112 % of control

CC[C@H](CC[C@@H](C)[C@H]1CC[C@H]2[C@@H]3CC=C4C[C@@H](OC(C)=O)CC[C@]4(C)[C@H]3CC[C@]12C)C(C)C
inactive: dose: 6.25 mg/kg/injection, schedule: Q01DX009 (ip), vehicle: Klucel (hydroxypropylcellulose) (HPC) 99 % of control and 110 % of control | dose: 12.5 mg/kg/injection, schedule: Q01DX009 (ip), vehicle: Klucel (hydroxypropylcellulose) (HPC) 105 % of control and 107 % of control | dose: 25.0 mg/kg/injection, schedule: Q01DX009 (ip), vehicle: Klucel (hydroxypropylcellulose) (HPC) 104 % of control and 92 % of control | [4] 98 % of control and 105 % of control | dose: 75.0 mg/kg/injection, schedule: Q01DX009 (ip), vehicle: Klucel (hydroxypropylcellulose) (HPC) 100 % of control and 92 % of control

CN=C(N/N=C(C)\C=N\NC(=NC)N(C)C)N(C)C
inactive: [5] 109 % of control | [6] 105 % of control | [7] 105 % of control

CSC1=NN(C)C2(CCCCC2)C(=O)N1
inactive: [4] 115 % of control | dose: 100.0 mg/kg/injection, schedule: Q01DX009 (ip), vehicle: Klucel (hydroxypropylcellulose) (HPC) 96 % of control | dose: 200.0 mg/kg/injection, schedule: Q01DX009 (ip), vehicle: Klucel (hydroxypropylcellulose) (HPC) 118 % of control

CC(=O)/C=C(\c1ccccc1)c1c(O)c2ccccc2oc1=O
inactive: [8] 89 % of control | [9] 99 % of control | [10] 114 % of control

CCC1C2Cc3ccc(O)cc3C1(C)CCN2C (centres undefined)
inactive: dose: 12.5 mg/kg/injection, schedule: Q01DX005 (ip), vehicle: Klucel (hydroxypropylcellulose) (HPC) 100 % of control | dose: 25.0 mg/kg/injection, schedule: Q01DX005 (ip), vehicle: Klucel (hydroxypropylcellulose) (HPC) 99 % of control | [11] 102 % of control and 107 % of control

CCC(=O)C(=O)NC(C)C(C)=O (centres undefined)
inactive: [5] 99 % of control | [6] 98 % of control | [7] 100 % of control

COc1ccc(S(=O)(=O)N/N=C/c2ccccn2)cc1OC
inactive: [11] 99 % of control | dose: 100.0 mg/kg/injection, schedule: Q01DX005 (ip), vehicle: Klucel (hydroxypropylcellulose) (HPC) 96 % of control | dose: 200.0 mg/kg/injection, schedule: Q01DX005 (ip), vehicle: Klucel (hydroxypropylcellulose) (HPC) 98 % of control

O=S1(=O)C(c2cccc(F)c2)=C(O)c2cc3ccccc3nc21
inactive: [8] 104 % of control | [9] 97 % of control | [10] 104 % of control

CSCC1Cc2ccccc2N=C(c2ccccc2)O1 (centres undefined)
inactive: dose: 100.0 mg/kg/injection, schedule: Q01DX001 (ip), vehicle: saline with Tween-80 100 % of control | dose: 200.0 mg/kg/injection, schedule: Q01DX001 (ip), vehicle: saline with Tween-80 97 % of control | dose: 400.0 mg/kg/injection, schedule: Q01DX001 (ip), vehicle: saline with Tween-80 100 % of control

Cc1cccc(NNC(=S)Nc2ccccc2)c1
inactive: [1] 95 % of control | [2] 100 % of control | [3] 90 % of control

CC(=O)OC1CC(c2ccccc2)=NO1 (centres undefined)
inactive: dose: 60.0 mg/kg/injection, schedule: Q01DX005 (ip), vehicle: Klucel (hydroxypropylcellulose) (HPC) 106 % of control | dose: 120.0 mg/kg/injection, schedule: Q01DX005 (ip), vehicle: Klucel (hydroxypropylcellulose) (HPC) 95 % of control | dose: 240.0 mg/kg/injection, schedule: Q01DX005 (ip), vehicle: Klucel (hydroxypropylcellulose) (HPC) 103 % of control

Reference: PubChem BioAssay AID330 (DTP/NCI, 2004)
